Earlier results as cited in patent US10696827B2, “Polyolefin composition comprising an antimicrobial additive” (SABIC GLOBAL TECHNOLOGIES B.V., priority 2015, dated 2020).

Test system: Staphylococcus aureus
Conditions: >0.4% of additive in LDPE catheter, rabbits, subcutaneous

CCCCCCc1ccc(O)cc1O [4-n-hexyl resorcinol]
infection: little to no infection
